Activity calls are given as the source filed them. The calls are words filed in the database; no cut-off is given here.
Tests used:
Mus musculus [1] = experiment: Toxicity in nu/nu mouse xenografted with human MOLM13 cells at 1 to 10 mg/kg, iv qd administered on days 1 to 5 and day 8 to 12; type: organism-based, MOLM-13; set-up: route intravenous; settings: in vivo
MOLM-13 [2] = experiment: Antitumor activity against human MOLM13 cells xenografted in nu/nu mouse at 10 mg/kg, iv qd administered on days 1 to 5 and days 8 to 12 measured on day 16; type: functional; settings: MOLM-13, 384 h, read-out: TGI
MOLM-13 [3] = experiment: Antitumor activity against human MOLM13 cells xenografted in nu/nu mouse at 3 mg/kg, iv qd administered on days 1 to 5 and days 8 to 12 measured on day 11; type: functional; settings: MOLM-13, 264 h, read-out: TGI
MOLM-13 [4] = experiment: Antitumor activity against human MOLM13 cells xenografted in nu/nu mouse at 1mg/kg, iv qd administered on days 1 to 5 and days 8 to 12 measured on day 11; type: functional; settings: MOLM-13, iv, 264 h, read-out: TGI
MOLM-13 [5] = experiment: Antitumor activity against human MOLM13 cells xenografted in nu/nu mouse at 1mg/kg, iv qd administered on days 1 to 5 and days 8 to 12 measured for 5 days; type: functional, organism-based
Mus musculus [6] = experiment: Toxicity in mouse assessed as mortality at 25 mg/kg, iv for 5 days; type: organism-based; set-up: dose 25 mg/kg, route intravenous; settings: in vivo, 120 h
[7] = Oral bioavailability in Sprague-Dawley rat at 10 mg/kg; type: ADME, organism-based; settings: in vivo
[8] = Half life in Sprague-Dawley rat at 2 mg/kg, iv; type: ADME, organism-based; set-up: dose 2 mg/kg, route intravenous; settings: in vivo
[9] = Volume of distribution at steady state in Sprague-Dawley rat at 2 mg/kg, iv; type: ADME, organism-based; set-up: dose 2 mg/kg, route intravenous; settings: in vivo, read-out: Vdss
[10] = Plasma clearance in Sprague-Dawley rat at 2 mg/kg, iv; type: ADME, organism-based; set-up: dose 2 mg/kg, route intravenous
[11] = AUC (0 to infinity) in Sprague-Dawley rat at 2 mg/kg, iv; type: ADME, organism-based; set-up: time infinity, dose 2 mg/kg, route intravenous; settings: plasma
[12] = target: Platelet-derived growth factor receptor beta (Homo sapiens) (UniProt P09619); experiment: Inhibition of PDGFRB (unknown origin) at 1 uM by kinase Glo assay
[13] = target: Platelet-derived growth factor receptor alpha (Homo sapiens) (UniProt P16234); experiment: Inhibition of PDGFRA (unknown origin) at 1 uM by kinase Glo assay
[14] = target: Serine/threonine-protein kinase mTOR (Homo sapiens) (UniProt P42345); experiment: Inhibition of FRAP1 (unknown origin) at 1 uM by kinase Glo assay
[15] = target: Vascular endothelial growth factor receptor 3 (Homo sapiens) (UniProt P35916); experiment: Inhibition of FLT4 (unknown origin) at 1 uM by kinase Glo assay
Vascular endothelial growth factor receptor 3 (Homo sapiens), sequence (P35916 whole entry): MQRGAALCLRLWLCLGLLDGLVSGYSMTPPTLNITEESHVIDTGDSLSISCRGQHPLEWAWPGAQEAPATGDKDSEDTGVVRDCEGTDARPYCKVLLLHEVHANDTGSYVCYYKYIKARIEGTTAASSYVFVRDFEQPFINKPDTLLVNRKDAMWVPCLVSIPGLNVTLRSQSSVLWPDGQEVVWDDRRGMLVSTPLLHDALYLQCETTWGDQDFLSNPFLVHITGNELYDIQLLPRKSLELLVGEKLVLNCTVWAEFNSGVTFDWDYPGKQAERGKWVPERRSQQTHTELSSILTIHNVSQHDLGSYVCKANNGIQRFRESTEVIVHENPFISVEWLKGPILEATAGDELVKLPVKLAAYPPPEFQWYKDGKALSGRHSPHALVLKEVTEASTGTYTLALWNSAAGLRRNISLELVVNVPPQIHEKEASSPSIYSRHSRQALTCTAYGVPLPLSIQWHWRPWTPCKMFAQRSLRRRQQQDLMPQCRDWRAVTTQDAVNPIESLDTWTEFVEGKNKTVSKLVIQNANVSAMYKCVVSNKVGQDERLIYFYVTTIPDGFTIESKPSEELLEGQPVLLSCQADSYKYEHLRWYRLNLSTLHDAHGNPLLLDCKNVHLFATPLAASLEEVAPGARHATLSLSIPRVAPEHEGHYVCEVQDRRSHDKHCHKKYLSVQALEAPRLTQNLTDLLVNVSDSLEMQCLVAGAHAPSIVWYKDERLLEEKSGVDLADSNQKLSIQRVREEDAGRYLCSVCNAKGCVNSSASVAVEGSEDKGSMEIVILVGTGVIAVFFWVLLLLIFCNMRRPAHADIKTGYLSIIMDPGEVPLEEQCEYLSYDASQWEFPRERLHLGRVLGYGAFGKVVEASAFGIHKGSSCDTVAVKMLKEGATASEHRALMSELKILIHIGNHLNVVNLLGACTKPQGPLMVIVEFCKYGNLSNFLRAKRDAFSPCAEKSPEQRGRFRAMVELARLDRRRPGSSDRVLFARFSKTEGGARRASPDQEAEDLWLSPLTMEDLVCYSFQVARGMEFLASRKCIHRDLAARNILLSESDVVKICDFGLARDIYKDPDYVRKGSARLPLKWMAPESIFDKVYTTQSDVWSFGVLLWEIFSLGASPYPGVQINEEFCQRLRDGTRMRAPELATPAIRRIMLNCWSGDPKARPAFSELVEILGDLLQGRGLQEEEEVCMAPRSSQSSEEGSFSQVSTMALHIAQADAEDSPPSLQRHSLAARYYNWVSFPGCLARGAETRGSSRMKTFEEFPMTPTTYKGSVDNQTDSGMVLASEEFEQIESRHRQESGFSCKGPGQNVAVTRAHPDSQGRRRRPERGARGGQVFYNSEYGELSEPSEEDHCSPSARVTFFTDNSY

[16] = target: AMP-activated protein kinase (AMPK) alpha-1/beta-1/gamma-1 (Homo sapiens) (UniProt P54619+Q9Y478+Q13131); experiment: Inhibition of AMPK A1/B1/G1 (unknown origin) at 1 uM by kinase Glo assay; type: protein-complex assay
[17] = target: Tyrosine-protein kinase receptor TYRO3 (Homo sapiens) (UniProt Q06418); experiment: Inhibition of TYRO3 (unknown origin) at 1 uM
[18] = target: Proto-oncogene tyrosine-protein kinase Src (Homo sapiens) (UniProt P12931); experiment: Inhibition of SRC (unknown origin) at 1 uM
Proto-oncogene tyrosine-protein kinase Src (Homo sapiens), sequence (P12931 2-536 limits assumed): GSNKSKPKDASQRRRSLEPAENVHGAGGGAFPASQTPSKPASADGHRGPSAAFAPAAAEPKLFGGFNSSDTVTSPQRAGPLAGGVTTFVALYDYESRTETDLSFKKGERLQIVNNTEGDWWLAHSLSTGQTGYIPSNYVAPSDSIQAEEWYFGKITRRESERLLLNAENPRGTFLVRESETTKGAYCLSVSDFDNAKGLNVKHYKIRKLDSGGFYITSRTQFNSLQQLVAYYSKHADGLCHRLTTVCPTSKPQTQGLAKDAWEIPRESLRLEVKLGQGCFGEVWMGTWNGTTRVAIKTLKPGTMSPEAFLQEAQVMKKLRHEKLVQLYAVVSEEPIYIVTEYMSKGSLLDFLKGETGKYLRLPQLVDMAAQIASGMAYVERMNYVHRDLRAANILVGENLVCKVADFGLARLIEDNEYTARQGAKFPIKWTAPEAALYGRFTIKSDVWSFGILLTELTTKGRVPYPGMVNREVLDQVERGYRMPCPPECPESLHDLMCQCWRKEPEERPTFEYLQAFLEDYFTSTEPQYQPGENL

[19] = target: Proto-oncogene tyrosine-protein kinase receptor Ret (Homo sapiens) (UniProt P07949); experiment: Inhibition of RET (unknown origin) at 1 uM
[20] = target: Macrophage-stimulating protein receptor (Homo sapiens) (UniProt Q04912); experiment: Inhibition of MST1R (unknown origin) at 1 uM
[21] = target: Mitogen-activated protein kinase 8 (Homo sapiens) (UniProt P45983); experiment: Inhibition of MAPK8 (unknown origin) at 1 uM
[22] = target: Mitogen-activated protein kinase 10 (Homo sapiens) (UniProt P53779); experiment: Inhibition of MAPK10 (unknown origin) at 1 uM
[23] = target: Dual specificity mitogen-activated protein kinase kinase 1 (Homo sapiens) (UniProt Q02750); experiment: Inhibition of MAP2K1 (unknown origin) at 1 uM
[24] = target: Tyrosine-protein kinase JAK1 (Homo sapiens) (UniProt P23458); experiment: Inhibition of JAK1 (unknown origin) at 1 uM
[25] = target: Insulin-like growth factor 1 receptor (Homo sapiens) (UniProt P08069); experiment: Inhibition of IGF1R (unknown origin) at 1 uM
[26] = target: Inhibitor of nuclear factor kappa-B kinase subunit beta (Homo sapiens) (UniProt O14920); experiment: Inhibition of IKBKB (unknown origin) at 1 uM
[27] = target: Glycogen synthase kinase-3 beta (Homo sapiens) (UniProt P49841); experiment: Inhibition of GSK3B (unknown origin) at 1 uM
[28] = target: Glycogen synthase kinase-3 alpha (Homo sapiens) (UniProt P49840); experiment: Inhibition of GSK3A (unknown origin) at 1 uM
Glycogen synthase kinase-3 alpha (Homo sapiens), sequence (P49840 2-483 limits assumed): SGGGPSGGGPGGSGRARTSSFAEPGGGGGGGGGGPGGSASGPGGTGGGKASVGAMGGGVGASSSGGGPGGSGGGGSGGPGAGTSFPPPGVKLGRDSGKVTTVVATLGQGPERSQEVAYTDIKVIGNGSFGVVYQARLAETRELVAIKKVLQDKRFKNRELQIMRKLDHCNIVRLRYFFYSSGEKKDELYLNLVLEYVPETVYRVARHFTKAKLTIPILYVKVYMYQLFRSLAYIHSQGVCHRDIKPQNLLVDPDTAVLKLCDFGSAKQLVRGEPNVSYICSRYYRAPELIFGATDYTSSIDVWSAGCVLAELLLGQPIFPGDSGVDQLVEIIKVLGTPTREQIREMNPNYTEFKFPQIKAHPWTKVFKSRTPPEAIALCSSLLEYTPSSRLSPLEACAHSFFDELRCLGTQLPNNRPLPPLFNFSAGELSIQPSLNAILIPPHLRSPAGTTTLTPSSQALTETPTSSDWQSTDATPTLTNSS

[29] = target: Vascular endothelial growth factor receptor 1 (Homo sapiens) (UniProt P17948); experiment: Inhibition of FLT1 (unknown origin) at 1 uM
Vascular endothelial growth factor receptor 1 (Homo sapiens), sequence (P17948 whole entry): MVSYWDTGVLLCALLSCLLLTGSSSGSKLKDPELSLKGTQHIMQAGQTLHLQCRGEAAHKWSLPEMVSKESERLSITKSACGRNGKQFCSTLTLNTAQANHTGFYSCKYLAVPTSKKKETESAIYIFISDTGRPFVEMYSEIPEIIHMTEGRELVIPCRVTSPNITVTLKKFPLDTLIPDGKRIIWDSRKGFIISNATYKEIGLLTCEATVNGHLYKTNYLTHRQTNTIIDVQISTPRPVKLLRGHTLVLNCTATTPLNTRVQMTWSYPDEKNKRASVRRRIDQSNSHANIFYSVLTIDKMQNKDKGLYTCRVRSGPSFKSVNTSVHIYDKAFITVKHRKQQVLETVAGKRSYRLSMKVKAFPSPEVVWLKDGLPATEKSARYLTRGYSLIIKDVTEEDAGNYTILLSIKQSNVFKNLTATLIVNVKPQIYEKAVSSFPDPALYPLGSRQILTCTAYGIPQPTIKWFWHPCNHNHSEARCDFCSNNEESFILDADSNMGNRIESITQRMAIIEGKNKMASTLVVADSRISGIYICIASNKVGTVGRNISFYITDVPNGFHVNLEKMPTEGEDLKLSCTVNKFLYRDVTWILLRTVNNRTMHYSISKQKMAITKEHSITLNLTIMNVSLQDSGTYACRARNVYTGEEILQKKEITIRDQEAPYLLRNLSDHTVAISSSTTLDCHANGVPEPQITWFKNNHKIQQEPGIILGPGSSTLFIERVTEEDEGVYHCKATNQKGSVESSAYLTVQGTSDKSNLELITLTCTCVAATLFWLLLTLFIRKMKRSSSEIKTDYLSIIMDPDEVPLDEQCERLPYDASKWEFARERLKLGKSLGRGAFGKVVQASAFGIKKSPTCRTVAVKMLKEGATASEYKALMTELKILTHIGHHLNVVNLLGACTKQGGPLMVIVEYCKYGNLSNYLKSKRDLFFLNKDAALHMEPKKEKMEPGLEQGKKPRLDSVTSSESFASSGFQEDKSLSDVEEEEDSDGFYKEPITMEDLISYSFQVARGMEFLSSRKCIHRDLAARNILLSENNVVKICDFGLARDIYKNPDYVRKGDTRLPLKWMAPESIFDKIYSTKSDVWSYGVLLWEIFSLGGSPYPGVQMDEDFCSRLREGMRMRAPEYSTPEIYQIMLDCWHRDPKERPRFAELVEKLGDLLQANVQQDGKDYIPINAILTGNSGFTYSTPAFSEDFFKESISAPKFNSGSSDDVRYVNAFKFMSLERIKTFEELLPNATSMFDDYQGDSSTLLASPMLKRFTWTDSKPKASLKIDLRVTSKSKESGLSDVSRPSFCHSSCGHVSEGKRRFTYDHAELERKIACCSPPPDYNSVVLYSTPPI

[30] = target: Ephrin type-A receptor 2 (Homo sapiens) (UniProt P29317); experiment: Inhibition of EPHA2 (unknown origin) at 1 uM
Ephrin type-A receptor 2 (Homo sapiens), sequence (P29317 whole entry): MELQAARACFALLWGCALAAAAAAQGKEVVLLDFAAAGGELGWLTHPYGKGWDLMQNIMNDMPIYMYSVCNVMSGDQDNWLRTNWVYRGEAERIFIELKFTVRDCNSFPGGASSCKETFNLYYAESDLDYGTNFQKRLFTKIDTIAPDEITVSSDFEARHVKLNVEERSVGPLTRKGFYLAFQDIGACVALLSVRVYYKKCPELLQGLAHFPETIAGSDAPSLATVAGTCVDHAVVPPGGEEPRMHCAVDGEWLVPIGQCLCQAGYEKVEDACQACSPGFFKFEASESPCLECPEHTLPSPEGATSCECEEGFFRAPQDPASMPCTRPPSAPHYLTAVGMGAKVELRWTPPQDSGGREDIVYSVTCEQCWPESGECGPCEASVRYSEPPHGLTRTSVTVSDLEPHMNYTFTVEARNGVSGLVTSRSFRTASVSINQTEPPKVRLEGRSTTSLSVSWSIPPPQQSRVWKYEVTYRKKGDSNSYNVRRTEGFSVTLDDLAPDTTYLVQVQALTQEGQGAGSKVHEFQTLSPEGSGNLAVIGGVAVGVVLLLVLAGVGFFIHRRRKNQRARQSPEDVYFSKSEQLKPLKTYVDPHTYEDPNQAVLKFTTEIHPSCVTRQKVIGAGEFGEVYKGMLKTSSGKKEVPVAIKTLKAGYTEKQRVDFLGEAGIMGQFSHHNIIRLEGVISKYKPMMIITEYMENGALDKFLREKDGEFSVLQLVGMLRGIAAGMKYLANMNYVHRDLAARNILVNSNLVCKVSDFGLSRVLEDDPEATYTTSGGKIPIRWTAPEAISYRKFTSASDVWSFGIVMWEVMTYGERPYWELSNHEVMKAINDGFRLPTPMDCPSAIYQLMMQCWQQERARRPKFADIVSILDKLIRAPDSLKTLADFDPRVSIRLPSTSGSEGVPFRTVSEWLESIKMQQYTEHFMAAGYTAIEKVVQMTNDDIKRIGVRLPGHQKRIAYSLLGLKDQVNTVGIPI

[31] = target: CDK2/Cyclin A2 (Homo sapiens) (UniProt P24941+P20248); experiment: Inhibition of CDK2/cyclin A (unknown origin) at 1 uM; type: protein-complex assay
[32] = target: Serine/threonine-protein kinase MRCK alpha (Homo sapiens) (UniProt Q5VT25); experiment: Inhibition of MRCKA (unknown origin) at 1 uM
[33] = target: Tyrosine-protein kinase BTK (Homo sapiens) (UniProt Q06187); experiment: Inhibition of BTK (unknown origin) at 1 uM
[34] = target: Aurora kinase B (Homo sapiens) (UniProt Q96GD4); experiment: Inhibition of AURKB (unknown origin) at 1 uM
Aurora kinase B (Homo sapiens), sequence (Q96GD4 whole entry): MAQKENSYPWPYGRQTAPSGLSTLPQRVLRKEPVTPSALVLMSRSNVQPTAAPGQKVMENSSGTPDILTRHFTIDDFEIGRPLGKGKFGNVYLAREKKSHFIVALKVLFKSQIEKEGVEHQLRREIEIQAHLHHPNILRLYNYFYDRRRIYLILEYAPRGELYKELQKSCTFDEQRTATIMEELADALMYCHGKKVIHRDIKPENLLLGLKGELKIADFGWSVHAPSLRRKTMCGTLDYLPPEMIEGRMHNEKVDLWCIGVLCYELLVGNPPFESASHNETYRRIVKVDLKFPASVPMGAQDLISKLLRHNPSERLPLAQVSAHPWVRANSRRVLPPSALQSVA

[35] = target: Tyrosine-protein kinase ABL1 (Homo sapiens) (UniProt P00519); experiment: Inhibition of ABL1 (unknown origin) at 1 uM
MOLM-13 [36] = experiment: cells; settings: Homo sapiens, MOLM-13, 72 h
Aurora kinase A = target: T1, Aurora kinase A (Homo sapiens, UniProt O14965); experiment: biochemical
T1 sequence (O14965 whole entry): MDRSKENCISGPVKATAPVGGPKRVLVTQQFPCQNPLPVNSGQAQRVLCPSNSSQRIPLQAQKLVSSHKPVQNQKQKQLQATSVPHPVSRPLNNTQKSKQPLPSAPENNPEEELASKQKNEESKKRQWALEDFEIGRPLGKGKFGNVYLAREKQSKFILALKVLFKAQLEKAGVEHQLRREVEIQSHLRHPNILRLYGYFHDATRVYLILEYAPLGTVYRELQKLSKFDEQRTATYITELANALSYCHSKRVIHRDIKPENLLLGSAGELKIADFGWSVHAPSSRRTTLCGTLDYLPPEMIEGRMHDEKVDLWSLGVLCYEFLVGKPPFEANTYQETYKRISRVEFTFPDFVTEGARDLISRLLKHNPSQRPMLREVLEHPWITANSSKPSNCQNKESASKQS
Description: Inhibition of recombinant GST tagged Aurora A kinase (123 to 401) (unknown origin) transfected in insect sf9 cells after 90 mins by wallac counting analysis

Question: What does the source list for `CC(C)(C)c1cc(NC(=O)NCc2ccc(-c3cc(NC(=O)c4ccc(OCCN5CCOCC5)cc4)[nH]n3)cc2)no1`?
Answer: Activity (Mus musculus [1]): Non-toxic; inhibition in vivo at 10 mg/kg (MOLM-13 [2]): 84%; inhibition in vivo at 3 mg/kg (MOLM-13 [3]): 7%; inhibition in vivo at 1 mg/kg (MOLM-13 [4]): 66%; inhibition (MOLM-13 [5]): Active; Activity (Mus musculus [6]): Non-toxic; bioavailability [7]: 1%; half-life [8]: 6.2 h; Vd [9]: 3.6 L/kg; clearance [10]: 10.7 mL/min/kg; AUC(0-inf) [11]: 3140 ng·h/mL; inhibition [12]: 97%; inhibition [13]: 85%; inhibition [14]: -1%; inhibition [15]: 86%; inhibition [16]: 48%; inhibition [17]: 24%; inhibition [18]: 35%; inhibition [19]: 97%; inhibition [20]: 13%; inhibition [21]: -3%; inhibition [22]: -3%; inhibition [23]: 13%; inhibition [24]: 82%; inhibition [25]: -1%; inhibition [26]: -2%; inhibition [27]: 2%; inhibition [28]: 6%; inhibition [29]: 99%; inhibition [30]: 19%; inhibition [31]: 5%; inhibition [32]: -2%; inhibition [33]: -6%; inhibition [34]: 79%; inhibition [35]: 21%; GI50 (MOLM-13 [36]): 3 nM; IC50 (Aurora kinase A): > 1000 nM

Reference: ChEMBL document CHEMBL2384934, “Discovery of 3-phenyl-1H-5-pyrazolylamine derivatives containing a urea pharmacophore as potent and efficacious inhibitors of FMS-like tyrosine kinase-3 (FLT3)” (Bioorg Med Chem, 2013)
